Source: US20070185168A1, “Piperidine derivatives” (priority 2004, published 2007)
Like-named read-outs stand apart in the source and are kept apart here.

Experiments:
[1] = target: T1, NR2B subunit of the NMDA receptor (Rattus norvegicus, UniProt P35439+Q00960); assay: Antagonistic activity at rat NMDA receptor NR2B subunit: inhibition of [3H]ifenprodil binding to rat forebrain membrane
T1 construct: The forebrain membrane specimen of male rats of an SD strain; from tissue; host or cells: rat (SD strain, male) forebrain membranes
T1 sequence (Q00960 27-1482, other chains not shown): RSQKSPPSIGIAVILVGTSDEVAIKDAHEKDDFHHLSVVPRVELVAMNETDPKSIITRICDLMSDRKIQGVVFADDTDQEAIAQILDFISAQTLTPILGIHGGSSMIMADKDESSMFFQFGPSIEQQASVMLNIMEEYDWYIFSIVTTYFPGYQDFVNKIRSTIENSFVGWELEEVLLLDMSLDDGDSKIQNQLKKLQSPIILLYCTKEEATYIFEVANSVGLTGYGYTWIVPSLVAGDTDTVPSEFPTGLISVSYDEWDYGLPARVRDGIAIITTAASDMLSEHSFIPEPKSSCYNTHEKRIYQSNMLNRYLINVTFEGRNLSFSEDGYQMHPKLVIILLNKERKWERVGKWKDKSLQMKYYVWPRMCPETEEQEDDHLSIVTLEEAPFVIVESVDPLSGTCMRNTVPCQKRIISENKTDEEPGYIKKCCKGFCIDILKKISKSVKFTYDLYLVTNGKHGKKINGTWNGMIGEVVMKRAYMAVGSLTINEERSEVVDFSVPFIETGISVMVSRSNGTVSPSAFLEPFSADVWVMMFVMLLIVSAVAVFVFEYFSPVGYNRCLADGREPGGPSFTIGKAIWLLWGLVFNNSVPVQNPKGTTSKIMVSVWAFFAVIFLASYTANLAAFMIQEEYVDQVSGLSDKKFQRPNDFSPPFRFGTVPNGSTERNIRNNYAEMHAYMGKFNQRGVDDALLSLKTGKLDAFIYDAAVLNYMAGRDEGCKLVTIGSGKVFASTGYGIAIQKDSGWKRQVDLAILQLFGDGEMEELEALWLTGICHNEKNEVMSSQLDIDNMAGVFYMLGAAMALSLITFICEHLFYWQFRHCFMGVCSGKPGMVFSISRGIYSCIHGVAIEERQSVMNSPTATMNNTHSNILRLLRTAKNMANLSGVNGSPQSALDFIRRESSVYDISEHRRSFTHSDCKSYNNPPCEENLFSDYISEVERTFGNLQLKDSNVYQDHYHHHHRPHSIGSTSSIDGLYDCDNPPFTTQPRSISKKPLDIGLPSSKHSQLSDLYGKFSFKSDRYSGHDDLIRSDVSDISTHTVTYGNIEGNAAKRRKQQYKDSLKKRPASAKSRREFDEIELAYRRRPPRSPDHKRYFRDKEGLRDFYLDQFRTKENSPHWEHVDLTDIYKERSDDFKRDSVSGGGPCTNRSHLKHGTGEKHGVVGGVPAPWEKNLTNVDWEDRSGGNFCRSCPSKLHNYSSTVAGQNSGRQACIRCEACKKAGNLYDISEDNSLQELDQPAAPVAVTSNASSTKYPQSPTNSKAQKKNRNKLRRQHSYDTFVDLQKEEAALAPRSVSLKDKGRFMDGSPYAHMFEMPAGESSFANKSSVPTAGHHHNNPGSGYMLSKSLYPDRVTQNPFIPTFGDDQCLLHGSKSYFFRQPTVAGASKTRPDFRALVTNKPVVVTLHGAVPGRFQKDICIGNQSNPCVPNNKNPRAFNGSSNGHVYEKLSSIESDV
Procedure: Antagonistic Activity at Rat NMDA Receptor NR2B Subunit
The forebrain membrane specimen of male rats of an SD strain (final concentration: 250 μg protein/mL), [^3H]-ifenprodil [diluted with an HEPES buffer (20 mmol/L HEPES-KOH and 100 μmol/L trifluoroperazine (pH 7.4)) to give the final concentration of 4 nmol/L] and a test compound (each being diluted with an HEPES buffer to give the final concentration of […]) were mixed, and incubated at 25° C. for 90 minutes shading from light. The above-incubated membrane was recovered to a G/F-B filter using a cell harvester (Brandel; M-24) to stop the reaction. The resulting membrane was further washed with an HEPES buffer for three times, and radioactivity on the filter was measured (Beckman LS 6500). The antagonistic activity of the test compound for an NMDA receptor NR2B subunit was calculated by the following formula as an inhibiting rate for binding of [^3H]ifenprodil to the NR2B subunit of the NMDA receptor. The result is shown in Table 6 in terms of the concentration (IC50 value) of the test compound for 50% inhibition of binding of [^3H]ifenprodil to the NR2B subunit of the NMDA receptor. [formula] Non-specific binding amount: Binding amount of [^3H]ifenprodil in the presence of 10 μmol/L of ifenprodil Total binding amount: Binding amount of [^3H]ifenprodil in the absence of the test compound
Binding amount in the present of test compound: Binding amount of [^3H]ifenprodil in the presence of the test compound in each concentration

[2] = tested on: strangulated nerve-damaged rats; assay: Suppressive effect on neurogenic pain (allodynia, von Frey pain threshold) in strangulated nerve-damaged rats; assay type: in vivo, rat; settings: male SD rats, orally administered at the dose of 5 and 10 mg/kg, measured 1, 3 and 5 hours after administration
Procedure: Suppressive Effect of the Compound to Neurogenic Pain in Strangulated Nerve-damaged Rats
The test was carried out in accordance with a method by G. M. Pitcher, et al. [Pain, 1999,. vol. 83, pages 37 to 46] which is an improvement of a method by T. Mosconi and K. Kruger [Pain, 1996, vol. 64, pages 37 to 57].
Using male rats of an SD strain (Sprague-Dawley rats), strangulated nerve-damaged rats were prepared by removing sciatic nerve under anesthetizing with pentobarbital, and covering with a PE-60 polyethylene tube (trade name: Intramedic; size: PE-60; manufactured by Becton Dickinson) having a length of 2 mm over the removed area. After 14 to 21 days from the preparation, the following test was carried out. Incidentally, a pain threshold (g) was calculated by the following method, and the rats (strangulated rat-damaged rats) showing less than 4 g of a 50% pain threshold were used for the test in which one group comprised six rats. […]
For the measurement of allodynia which is characteristically noted in neurogenic pain, a von Frey filament (trade name: touch test sensory evaluator; catalog number: model 58011) was used and the result is expressed as a pain threshold (g). The pain threshold (g) was calculated by the up-down method by W. J. Dixon [Annual Review of Pharmacology and Toxicology, 1980, vol. […]

[3] = forebrain membrane of male SD rats, 4 nmol/L [3H]-ifenprodil, 25° C., 90 minutes, read-out: IC50, concentration for 50% inhibition of binding of [3H]ifenprodil to the NR2B subunit of the NMDA receptor

CC(C(O)c1ccc2[nH]c(=O)sc2c1)N1CCC(O)(c2cccs2)CC1 (racemic) [Compound 1, (±)-threo-6-{1-Hydroxy-2-[4-hydroxy-4-(thiophenee-2-yl)piperidino]propyl}benzothiazol-2(3H)-one]
IC50 [1]: 2 nM

CC(C(O)c1ccc2[nH]c(=O)sc2c1)N1CCC(O)(c2cccs2)CC1 (racemic) [Compound 2, (±)-erythro-6-{1-hydroxy-2-[4-hydroxy-4-thiophenee-2-yl)piperidino]propyl}benzothiazol-2(3H)-one]
IC50 [1]: 4.1 nM

CC(C(O)c1ccc2c(c1)CCC(=O)N2)N1CCC(O)(c2cccs2)CC1 (racemic) [Compound 6, (±)-threo-6-{1-Hydroxy-2-[4-hydroxy-4-(thiophene-2-yl)piperidino]propyl}-3,4-dihydroquinolin-2(1H)-one]
IC50 [1, 3]: 4.6 nM | improvement of allodynia (pain threshold, von Frey filament) versus Solvent treated group [2]: significantly improved

CC(C(O)c1ccc2c(c1)CCC(=O)N2)N1CCC(O)(c2cccs2)CC1 (racemic) [Compound 7, (±)-erythro-6-{1-Hydroxy-2-[4-hydroxy-4-(thiophene-2-yl)piperidino]propyl}-3,4-dihydroquinolin-2(1H)-one]
IC50 [1, 3]: 5.5 nM

O=c1[nH]c2ccc(C(O)CN3CCC(O)(c4cccs4)CC3)cc2s1 (centres unmarked) [Compound 5, 6-{1-Hydroxy-2-[4-hydroxy-4-(thiophene-2-yl)-piperidino]ethyl}benzothiazol-2(3H)-one]
IC50 [1]: 2.9 nM

O=C1CCc2cc(C(O)CN3CCC(O)(c4cccs4)CC3)ccc2N1 (centres unmarked) [Compound 10]
IC50 [1, 3]: 5.2 nM | improvement of allodynia (pain threshold, von Frey filament) versus Solvent treated group [2]: significantly improved
